In patent publication US20120178766A1, “FUROPYRIMIDINEDIONE DERIVATIVES AS TRPAI MODULATORS” (priority 2009, published 2012) one finds inhibition and IC50 data, which are given here for 17 molecules.

One assay deals with T1, rat TRPA1 (Rattus norvegicus, UniProt Q6RI86).
T1 construct: expressed in transfected cells; host or cells: CHO cells (Zeocin selection)
Nature of the assay: 45Calcium uptake assay: inhibition of AITC induced cellular uptake of radioactive calcium, rat TRPA1 expressing CHO cells. It counts as cell-based. To be noted: AITC 10 μM; for inhibition at 10 µM: 10.0 μM compound, read-out: rat TRPA1 Percentage inhibition at 10.0 μM; for inhibition at 1 µM: read-out: rat TRPA1 Percentage inhibition; for IC50: class symbols. How it is done: (§1) Screening for TRPA1 Antagonist Using the ^45Calcium Uptake Assay:
(§2) The inhibition of TRPA1 receptor activation was measured as inhibition of allyl isothiocyanate (AITC) induced cellular uptake of radioactive calcium.
Test compounds were dissolved in 100% DMSO to prepare 10 mM stock and then diluted using plain medium with 0.1% BSA and 1.8 mM CaCl2 to get the desired concentration. The final concentration of DMSO in the reaction was 0.5% (v/v). […] Rat TRPA1 expressing CHO cells were grown in F-12 DMEM medium with 10% FBS, 1% penicillin-streptomycin solution, and 400 μg/ml of Zeocin. […] Cells were treated with the test compounds for 10 minutes followed by the addition of AITC at a final concentration of 30 μM (for human TRPA1) and/or 10 μM (for rat TRPA1) and 5 μCi/ml ^45Ca^+2 for 3 minutes. Cells were washed and lysed using a buffer containing 1% Triton X-100, 0.1% deoxycholate and 0.1% SDS. Radioactivity in the lysate was measured in a Packard TopCount after addition of liquid scintillant.
(§3) Concentration response curves were plotted as a % of maximal response obtained in the absence of test antagonist. IC50 values can be calculated from concentration response curve by nonlinear regression analysis using GraphPad PRISM software.

A further assay deals with T2, human TRPA1 (Homo sapiens, UniProt O75762).
T2 construct: expressed in transfected cells; host or cells: CHO cells (G-418 selection)
In words: 45Calcium uptake assay: inhibition of AITC induced cellular uptake of radioactive calcium, human TRPA1 expressing CHO cells. It counts as cell-based. The conditions noted are these: AITC 30 μM; for inhibition at 1 µM: 1.0 μM compound, read-out: human TRPA1 Percentage inhibition at 1.0 μM; for inhibition at 10 µM: 10.0 μM compound, read-out: human TRPA1 Percentage inhibition at 10.0 μM.
Text: The illustrative examples of the present invention are screened for TRPA1 activity according to a modified procedure described in (a) Tóth, A. et al. Life Sciences, 2003, 73, 487-498. (b) McNamara C, R. et al, Proc. Natl. Acad. Sci. U.S.A., 2007, 104, 13525-13530. The screening of the compounds can be carried out by other methods and procedures known to persons skilled in the art.
as §1, §2
Test compounds were dissolved in 100% DMSO to prepare 10 mM stock and then diluted using plain medium with 0.1% BSA and 1.8 mM CaCl2 to get the desired concentration. The final concentration of DMSO in the reaction was 0.5% (v/v). Human TRPA1 expressing CHO cells were grown in F-12 DMEM medium with 10% FBS, 1% penicillin-streptomycin solution, and 400 μg/ml of G-418. Rat TRPA1 expressing CHO cells were grown in F-12 DMEM medium with 10% FBS, 1% penicillin-streptomycin solution, and 400 μg/ml of Zeocin. Cells were seeded 24 h prior to the assay in 96 well plates so as to get ˜50,000 cells per well on the day of experiment. Cells were treated with the test compounds for 10 minutes followed by the addition of AITC at a final concentration of 30 μM (for human TRPA1) and/or 10 μM (for rat TRPA1) and 5 μCi/ml ^45Ca^+2 for 3 minutes. Cells were washed and lysed using a buffer containing 1% Triton X-100, 0.1% deoxycholate and 0.1% SDS. Radioactivity in the lysate was measured in a Packard TopCount after addition of liquid scintillant. (Toth et al, Life Sciences (2003) 73, 487-498; McNamara C R et al, Proceedings of the National Academy of Sciences, (2007) 104, 13525-13530).
as §3

Some results are limits rather than exact numbers.

T1 sequence (Q6RI86 whole entry): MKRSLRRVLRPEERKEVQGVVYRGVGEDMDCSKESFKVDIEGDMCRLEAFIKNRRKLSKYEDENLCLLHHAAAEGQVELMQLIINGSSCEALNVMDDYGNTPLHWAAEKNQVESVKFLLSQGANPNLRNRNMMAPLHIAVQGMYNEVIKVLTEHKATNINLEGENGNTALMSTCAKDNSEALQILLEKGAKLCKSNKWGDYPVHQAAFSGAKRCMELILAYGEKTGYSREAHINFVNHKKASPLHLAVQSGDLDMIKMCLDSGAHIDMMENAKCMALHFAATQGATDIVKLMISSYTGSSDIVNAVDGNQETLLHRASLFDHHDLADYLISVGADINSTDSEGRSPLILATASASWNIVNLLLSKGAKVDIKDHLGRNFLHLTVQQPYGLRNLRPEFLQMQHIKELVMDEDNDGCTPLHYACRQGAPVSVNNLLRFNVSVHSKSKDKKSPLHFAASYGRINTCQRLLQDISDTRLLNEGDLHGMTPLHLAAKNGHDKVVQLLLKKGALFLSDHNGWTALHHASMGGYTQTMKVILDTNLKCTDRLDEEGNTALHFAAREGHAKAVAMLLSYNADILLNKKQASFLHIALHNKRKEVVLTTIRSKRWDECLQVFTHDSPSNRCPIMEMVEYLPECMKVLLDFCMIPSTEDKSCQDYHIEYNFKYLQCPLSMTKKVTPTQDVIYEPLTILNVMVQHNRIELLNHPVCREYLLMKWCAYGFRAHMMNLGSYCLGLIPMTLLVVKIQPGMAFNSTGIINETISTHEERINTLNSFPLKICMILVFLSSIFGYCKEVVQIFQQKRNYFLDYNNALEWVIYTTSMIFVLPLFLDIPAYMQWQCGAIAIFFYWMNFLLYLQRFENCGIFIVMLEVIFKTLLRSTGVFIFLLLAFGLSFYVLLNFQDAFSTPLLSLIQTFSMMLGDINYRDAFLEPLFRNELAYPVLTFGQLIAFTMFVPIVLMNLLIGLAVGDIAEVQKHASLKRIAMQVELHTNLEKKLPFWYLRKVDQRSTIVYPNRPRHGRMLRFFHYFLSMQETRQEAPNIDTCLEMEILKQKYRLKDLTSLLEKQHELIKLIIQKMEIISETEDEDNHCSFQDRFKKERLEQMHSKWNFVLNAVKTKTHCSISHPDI
T2 sequence (O75762 whole entry): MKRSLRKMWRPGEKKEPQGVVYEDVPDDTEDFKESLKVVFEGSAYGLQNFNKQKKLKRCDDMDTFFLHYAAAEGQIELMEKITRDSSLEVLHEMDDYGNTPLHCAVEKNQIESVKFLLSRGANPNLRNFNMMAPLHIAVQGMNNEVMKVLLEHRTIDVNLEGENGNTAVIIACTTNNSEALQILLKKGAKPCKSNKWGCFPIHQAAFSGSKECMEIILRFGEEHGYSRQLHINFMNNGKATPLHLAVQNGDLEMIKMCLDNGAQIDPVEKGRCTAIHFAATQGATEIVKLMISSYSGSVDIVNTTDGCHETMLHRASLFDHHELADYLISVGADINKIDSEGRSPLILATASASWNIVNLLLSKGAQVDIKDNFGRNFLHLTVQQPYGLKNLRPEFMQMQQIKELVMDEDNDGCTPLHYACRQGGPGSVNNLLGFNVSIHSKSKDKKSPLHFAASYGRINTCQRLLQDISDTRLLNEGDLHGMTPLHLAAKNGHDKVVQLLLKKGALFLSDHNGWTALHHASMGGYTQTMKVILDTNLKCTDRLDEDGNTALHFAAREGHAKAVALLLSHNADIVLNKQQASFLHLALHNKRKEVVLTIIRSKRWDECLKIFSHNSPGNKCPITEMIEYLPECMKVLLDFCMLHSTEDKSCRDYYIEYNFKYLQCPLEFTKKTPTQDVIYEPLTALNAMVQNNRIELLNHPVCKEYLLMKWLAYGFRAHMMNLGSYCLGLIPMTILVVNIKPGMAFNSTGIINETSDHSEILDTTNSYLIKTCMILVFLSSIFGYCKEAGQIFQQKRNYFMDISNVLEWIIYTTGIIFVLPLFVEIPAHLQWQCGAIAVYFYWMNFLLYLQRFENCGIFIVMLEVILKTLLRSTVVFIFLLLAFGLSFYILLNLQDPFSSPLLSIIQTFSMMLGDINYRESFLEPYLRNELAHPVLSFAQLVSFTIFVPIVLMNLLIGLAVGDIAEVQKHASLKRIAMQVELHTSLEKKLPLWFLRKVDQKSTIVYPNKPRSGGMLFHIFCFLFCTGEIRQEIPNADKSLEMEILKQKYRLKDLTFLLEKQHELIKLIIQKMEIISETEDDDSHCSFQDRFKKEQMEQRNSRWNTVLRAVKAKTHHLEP

The term inhibition denotes the relative decrease from the control value, in per cent. What is called IC50 is the concentration needed to halve the response being measured. Regarding `Cn1c(=O)c2c(CC(=O)Nc3ccc(Oc4ccc(C(F)(F)F)cc4)cc3)coc2n(C)c1=O` [Example 1, N1-[4-(4-Trifluoromethylphenoxy)phenyl]-2-(1,3-dimethyl-2,4-dioxo-1,2,3,4-tetrahydrofuro[2,3-d]pyrimidin-5-yl)acetamide], on rat TRPA1, the inhibition at 10 µM was 100% and the inhibition at 1 µM was found to be 96.7%. For the same molecule, the IC50 on human TRPA1 (class symbols) is above 100 nM.
Turning to `Cn1c(=O)c2c(CC(=O)NCCc3ccc(Cl)cc3Cl)coc2n(C)c1=O` [Example 2, N1-[2-(2,4-Dichlorophenyl)ethyl]-2-(1,3-dimethyl-2,4-dioxo-1,2,3,4-tetrahydrofuro[2,3-d]pyrimidin-5-yl)acetamide], at human TRPA1, the inhibition at 1 µM was 17.7% and the inhibition at 10 µM was 28.4%.
Taken in the same sequence, the figures for `Cn1c(=O)c2c(CC(=O)Nc3nc(C(F)(F)F)cs3)coc2n(C)c1=O` [Example 3, N1-[4-(Trifluoromethyl)-1,3-thiazol-2-yl]-2-(1,3-Dimethyl-2,4-dioxo-1,2,3,4-tetrahydrofuro[2,3-d]pyrimidin-5-yl)acetamide] were 6.44% and 45.8%.
On to `Cn1c(=O)c2c(CC(=O)Nc3nc4c(F)cc(F)cc4s3)coc2n(C)c1=O` [Example 4, N-(4,6-Difluoro-1,3-benzothiazol-2-yl)-2-(1,3-dimethyl-2,4-dioxo-1,2,3,4-tetrahydrofuro[2,3-d]pyrimidin-5-yl)acetamide], for which, at human TRPA1, the inhibition at 1 µM was determined as 14.5% and the inhibition at 10 µM came to 57.3%.
Taken in the same sequence, the figures for `CC(C)Cc1ccc(-c2csc(NC(=O)Cc3coc4c3c(=O)n(C)c(=O)n4C)n2)cc1` [Example 5, N1-[4-(4-Isobutylphenyl)-1,3-thiazol-2-yl]-2-(1,3-dimethyl-2,4-dioxo-1,2,3,4-tetrahydrofuro[2,3-d]pyrimidin-5-yl)acetamide] were 27% and 99.8%.
With `Cn1c(=O)c2c(CC(=O)Nc3nc(-c4ccc(C(F)(F)F)cc4)cs3)coc2n(C)c1=O` [Example 6, N1-{4-[4-(Trifluoromethyl)phenyl]-1,3-thiazol-2-yl}-2-(1,3-dimethyl-2,4-dioxo-1,2,3,4-tetrahydrofuro[2,3-d]pyrimidin-5-yl)acetamide], at human TRPA1, the inhibition at 1 µM is 100% and the inhibition at 10 µM turned out to be 99.6%. In addition, the concentration for half-maximal inhibition (IC50) on human TRPA1 (class symbols) was below 50 nM.
The corresponding values for `Cn1c(=O)c2c(CC(=O)Nc3nc(-c4cccc(C(F)(F)F)c4)cs3)coc2n(C)c1=O` [Example 7, N1-{4-[3-(Trifluoromethyl)phenyl]-1,3-thiazol-2-yl}-2-(1,3-dimethyl-2,4-dioxo-1,2,3,4-tetrahydrofuro[2,3-d]pyrimidin-5-yl)acetamide] are 98.8%, 99.8% and below 50 nM.
Turning to `Cn1c(=O)c2c(CC(=O)Nc3nc(-c4ccc(OC(F)(F)F)cc4)cs3)coc2n(C)c1=O` [Example 8, N1-[4-(4-Trifluorormethoxyphenyl)-1,3-thiazol-2-yl]-2-(1,3-dimethyl-2,4-dioxo-1,2,3,4-tetrahydrofuro[2,3-d]pyrimidin-5-yl)acetamide], the inhibition at 10 µM stood at 100% at rat TRPA1 and 98.8% on human TRPA1. Further, the inhibition at 1 µM came to 100% on rat TRPA1 and 93.2% at human TRPA1. Moreover, the IC50 at rat TRPA1 and at human TRPA1 (class symbols) was below 50 nM throughout.
With `Cn1c(=O)c2c(CC(=O)Nc3nc(-c4cccc(OC(F)(F)F)c4)cs3)coc2n(C)c1=O` [Example 9, N1-[4-(3-Trifluorormethoxyphenyl)-1,3-thiazol-2-yl]-2-(1,3-dimethyl-2,4-dioxo-1,2,3,4-tetrahydrofuro[2,3-d]pyrimidin-5-yl)acetamide], at human TRPA1, the inhibition at 1 µM turned out to be 99.3% and the inhibition at 10 µM turned out to be 100%. For the same molecule, the IC50 on human TRPA1 (class symbols) is below 50 nM.
As to `Cn1c(=O)c2c(CC(=O)Nc3nc(-c4ccc(F)c(Br)c4)cs3)coc2n(C)c1=O` [Example 10, N1-[4-(3-Bromo-4-fluorophenyl)-1,3-thiazol-2-yl]-2-(1,3-dimethyl-2,4-dioxo-1,2,3,4-tetrahydrofuro[2,3-d]pyrimidin-5-yl)acetamide], the inhibition at 10 µM at rat TRPA1 was found to be 100%; at human TRPA1, 97.7%. For the same molecule, the inhibition at 1 µM at rat TRPA1 worked out at 97.5%; on human TRPA1, 98.5%. Further, the IC50 is 50 to 100 nM at rat TRPA1 and below 50 nM at human TRPA1 (class symbols).
With `Cn1c(=O)c2c(CC(=O)Nc3nc(-c4ccc(F)c(F)c4)cs3)coc2n(C)c1=O` [Example 11, N1-[4-(3,4-Difluorophenyl)-1,3-thiazol-2-yl]-2-(1,3-dimethyl-2,4-dioxo-1,2,3,4-tetrahydrofuro[2,3-d]pyrimidin-5-yl)acetamide], on human TRPA1, the inhibition at 1 µM was 98.8% and the inhibition at 10 µM worked out at 99.4%. The IC50 on human TRPA1 (class symbols) lay within 50 to 100 nM.
The corresponding values for `Cn1c(=O)c2c(CC(=O)Nc3nc(-c4ccc(F)cc4F)cs3)coc2n(C)c1=O` [Example 12, N1-[4-(2,4-Difluorophenyl)-1,3-thiazol-2-yl]-2-(1,3-dimethyl-2,4-dioxo-1,2,3,4-tetrahydrofuro[2,3-d]pyrimidin-5-yl)acetamide] are 97.9%, 98.4% and above 100 nM.
The corresponding values for `Cn1c(=O)c2c(CC(=O)Nc3nc(-c4ccc(OC(F)F)c(Br)c4)cs3)coc2n(C)c1=O` [Example 25, N1-[4-(3-Bromo-4-difluoromethoxyphenyl)-1,3-thiazol-2-yl]-2-(1,3-dimethyl-2,4-dioxo-1,2,3,4-tetrahydrofuro[2,3-d]pyrimidin-5-yl)acetamide] are 99.3%, 99.8% and below 50 nM.
Taken in the same sequence, the figures for `CC(C)COc1ccc(-c2csc(NC(=O)Cc3coc4c3c(=O)n(C)c(=O)n4C)n2)cc1Br` [Example 29, N1-[4-(3-Bromo-4-isobutoxyphenyl)-1,3-thiazol-2-yl]-2-(1,3-dimethyl-2,4-dioxo-1,2,3,4-tetrahydrofuro[2,3-d]pyrimidin-5-yl)acetamide] were 98.6%, 99.8% and above 100 nM.
As for `Cn1c(=O)c2c(CC(=O)Nc3nc(-c4cc(F)c(F)cc4F)cs3)coc2n(C)c1=O` [Example 33, N1-[4-(2,4,5,-Trifluorophenyl)-1,3-thiazol-2-yl]-2-(1,3-dimethyl-2,4-dioxo-1,2,3,4-tetrahydrofuro[2,3-d]pyrimidin-5-yl)acetamide], at human TRPA1, the inhibition at 1 µM was determined as 97.9% and the inhibition at 10 µM was found to be 98.1%. For the same molecule, the IC50 on human TRPA1 (class symbols) was below 50 nM.
In the case of `CC(C)CCOc1c(F)cc(-c2csc(NC(=O)Cc3coc4c3c(=O)n(C)c(=O)n4C)n2)cc1F` [Example 45, N1-{4-[3,5-Difluoro-4-(3-methylbutoxy)phenyl]-1,3-thiazol-2-yl}-2-(1,3-dimethyl-2,4-dioxo-1,2,3,4-tetrahydrofuro[2,3-d]pyrimidin-5-yl)acetamide], on human TRPA1, the inhibition at 1 µM was 90.7% and the inhibition at 10 µM amounted to 98.1%. Further, the 50% inhibitory concentration (IC50) on human TRPA1 (class symbols) was below 50 nM.
Consider `Cc1oc2c(c1CC(=O)Nc1nc(-c3cc(F)c(Cl)cc3Cl)cs1)c(=O)n(C)c(=O)n2C` [Example 79, N1-[4-(2,4-Dichloro-5-fluorophenyl)-1,3-thiazol-2-yl]-2-(1,3,6-trimethyl-2,4-dioxo-1,2,3,4-tetrahydrofuro[2,3-d]pyrimidin-5-yl)acetamide], for which the IC50 at human TRPA1 (numeric values) was 247 nM.
